According to patent US11092602B2, “Methods and compositions relating to proteasome inhibitor resistance” (Whitehead Institute for Biomedical Research, priority 2015, dated 2021):

Legend:
HepG2 cells = experiment: Cell viability assay (resazurin) in HepG2 cells expressing proteasome subunit shRNAs; type: cell-based, human
Description: Next, we asked if a simple reduction in the expression of 19S subunits could protect against the toxicity of proteasome inhibitors. We assembled a panel of shRNA-expressing lentiviruses targeting seventeen 19S subunits and three 20S subunits (PSMB5, PSMB7 and PSMA3). Each gene was targeted separately using four different shRNAs (FIG. 2, Table S2) and we averaged the effects on viability from these four hairpins.
For the analysis of multiple proteasome subunit knockdown 80 shRNA targeting 20 proteasome subunits (4 different shRNAs) and 13 control shRNAs (Table S2) in pLKO lentiviral vectors from the RNAi consortium shRNA library were utilized. Cells were plated in 96 wells with the volume of 100 μL media at the concentration of 2500 cells/well. 24 hours after plating media was discarded and 50 μl with 7.5-10 μg/μ1 of polybrene and 7 μl of purified virus was added. After incubation for 24 hours the media was discarded and 200 μl of fresh media with 1 μg/ml puromycin was added. Bortezomib was added where specified. pLKO lentiviral vectors from the RNAi consortium shRNA library targeting the PSMC5 and PSMD2 (Table 2) were further used to create HepG2 and T47D stably overexpressing these shRNAs by selection with puromycin 1 μg/ml for one week.
Relative cell growth and survival were measured in 96-well microplate format in the shRNA experiments and in 384 well format in the drug toxicity assays, by using the fluorescent detection of resazurin dye reduction as an endpoint (544 nm excitation and 590 nm emission). 2,500 cells in 96 wells format or 1,000 cells in 384 well format were plated 24 hours before compound exposure (for 72 hours or indicated time). Each analysis was performed at least with three replicas.

[1] = test system: stress-response transcripts; experiment: RNA-seq gene expression profiling of PSMD2 knockdown and control (shLacZ) cells; type: cell-based, human; settings: control cells; 12 nM bortezomib for 24 hours
Procedure: Sequence data confirmed that PSMD2 mRNA levels were reduced by ˜50% in both lines. We examined basal gene expression and the effects of bortezomib treatment on these cells, comparing them to cells carrying a control lacZ shRNA construct.
RNA was extracted from triplicate samples and RNA libraries were prepared for sequencing by NEBNext Ultra RNA Library Prep Kit for Illumina (New England BioLabs, Ipswich, Mass.), including the removal of large and small RNA, synthesis of cDNA, and construction of cDNA libraries. Libraries were barcoded using NEBNext Multiplex Oligos for Illumina (NEB). Libraries were sequenced using Illumina HiSeq 2500, with paired-end 100 bp reads. Paired-end reads were aligned to UCSC human transcriptome 19 (hg19) using TopHat (Bowtie v2.0.9). Alignment quality and read distribute was assessed via SAMtools (v0.1.19) (Li et al., 2009). Transcript assembly was conducted using cufflinks (v2.2.1). […] RNA sequencing data have been deposited in the NCBI Sequence Read Archive under accession number: PRJNA281613.
Genes differentially expressed upon PSMD2 knockdown in either the presence or absence of bortezomib treatment were determined as follows (FIG. 3E): For each gene in the matrix described above, the values were normalized to the average expression in the LacZ control cells. […]

T47D cells = experiment: Selleck anti-cancer compound library screen, PSMD2 KD versus control T47D cells (resazurin); type: cell-based, human; settings: 4 concentrations, 72 hours
Procedure: After 48 hours the cells were collected, counted, and plated at 1000 cells/well in 384 well plates in duplicates for each cell line. Compounds from the Selleck Chemicals anti-cancer compound library β49 drugs in 4 concentrations; […]) were pinned the next day and viability was measured after 72 hours by the reduction of Resazurin (Ex=530 nm, Em=590 nm).
The effect of each drug on viability of cells was calculated by averaging the duplicate experiments. The data is plotted in FIG. 16 as the log2 of the ratio of viability of PSMD2 KD versus control cells (log2 (shPSMD2/Control)).

IMR32 and Kelly cells = experiment: CellTiter-Glo viability of IMR32 and Kelly neuroblastoma cells; type: cell-based; settings: 0.001 um to 0.100 um; 72 hours
Procedure: IMR32 and Kelly cells were each cultured in the presence of bortezomib at concentrations ranging from 0.001 um to 0.100 um. […] The fold viability relative to culture in the absence of bortezomib was determined for each cell line.
The fold viability relative to culture in the absence of the compound was determined for each cell line.

β5-subunit = β5-subunit (Homo sapiens, UniProt P28074); settings: cited from earlier work

## CC(C)C[C@H](NC(=O)[C@H](Cc1ccccc1)NC(=O)c1cnccn1)B(O)O [bortezomib]
HepG2 cells; HepG2, 12 nM bortezomib
  proliferation of lines stably expressing shRNA targeting PSMC5 or PSMD2: continued proliferating
HepG2 cells; HepG2 control cells
  concentration of bortezomib that completely inhibited the proliferation of control cells: 12 nM
HepG2 cells; HepG2 lines with shRNA-driven modest reduction in PSMD2, 4 days
  EC50 values increased versus parental line: three to six
[1]
  transcriptional response: sharp increase in stress-response transcripts
T47D cells
  selective effect on viability, PSMD2 KD versus control cells (log2 (shPSMD2/Control)): selectively reduce viability of control cells versus PSMD2 KD cells
IMR32 and Kelly cells
  resistance of IMR32 cells relative to Kelly cells: increased resistance
β5-subunit
  potency of inhibition of the β5-subunit: low nanomolar
